Reference: US9127045B2, “Method of inhibiting bacterial growth and biofilm formation with natural quorum sensing peptides” (UNIVERSITY OF SOUTHERN CALIFORNIA, priority 2005, dated 2015)
Ends that are not written are not given here.

Tests used:
S. mutans = experiment: In vitro attachment assay to a smooth surface (Petri dish) with sucrose; type: cell-based; conditions: CSP at 8 µg/mL for 10 minutes prior to one hour incubation on Petri dishes with sucrose; without CSP up to 51%; FIG. 9
Experimental: The bacteria were grown in liquid cultures to the desired optical density. 20 ml of the cultures were then transferred into Petri dishes and sucrose added to the final concentration of 2%. The incubation was resumed for one hour, after which the liquid fraction was withdrawn and the fresh medium was added into which the layer of attached cells was scraped. The percentage of the attached bacteria was determined as the ratio of the optical densities of the attached to the total (a sum of attached and unattached) bacteria.
Synthetic CSP was dissolved in water to the concentration of 1 mg/mL as described in Li, Y-H et al., J. of Bact., 183:897-908 (2001). The cultures were grown in Todd Hewitt Broth (THB) supplemented with 5% horse serum. CSP was added to the cultures at the time of diluting the overnight culture (time zero of the culture growth) to a designated concentration between 1 and 8 mcg/mL. The incubation then continued up to the optical density where the expression of GTF is maximal (OD 650=0.1). The cultures where then collected and used in Western blotting with anti-glucosyltransferase (gtf) antibody. […]
An in vitro assay was performed to determine whether CSP can inhibit the attachment of S. mutans to a smooth surface. When sucrose was added to the medium, the wild-type S. mutans readily attached to the surface of a Petri dish. […]

[1] = tested on: S. mutans wild-type strains UA140 and UA159; experiment: Growth inhibition of S. mutans culture by CSP pulse (96-well plate, cell density); type: cell-based
Experimental: Previously, it was assumed that quorum sensing may be an on/off type of switching event wherein when the quorum sensing molecule reaches a certain threshold, a new behavior is […] and vice versa. The inventors have unexpectedly discovered that the QS regulated gene expression is not an all-or-nothing type of system, but actually has a dose-dependent response. […] At a 100-fold higher concentration (400 μM), CSP inhibits the growth of a S. mutans culture by 50%.
The experiment was performed in a 96-well plate with triplicate wells for each treatment. Cell density was measured by using a plate reader (BioRad). The experiment was repeated three times. Numbers represent the average of the triplicate samples from one representative experiment. Variations between experiments were within 20%.
These experiments were designed to mimic the conditions of the dental hygiene regimen. Specifically, the bacteria were “pulsed” with CSP. The peptide was added for a mere 10 minutes, washed away and the incubation continued in the fresh medium. In this set-up the inhibitory effect persisted for a long time and became undetectable only after 16 hours of the culture growth. Competition experiments have also shown that a mere 3-hour advantage is sufficient to ensure that a resident species in a biofilm will out compete the newcomer.

FTF expression = experiment: Western blot of FTF expression (control) after addition of CSP; type: cell-based, S. mutans; conditions: same blot, antibody specific to FTF; FIG. 7 panel 2
Experimental: (§1) For the Western blotting, the bacteria were incubated to the desired optical density, subjected to the freeze-thaw cycle and mixed with the sample loading buffer. The samples were heated at 100° C. for 15 minutes and subjected to the PAGE. The number of cells per lane of the gel was kept constant at 10^8 cells. The western blotting was performed in accordance with a standard procedure (Sambrook, J. and Russel D. W. Molecular Cloning, a laboratory manual, 3rd ed. Cold Spring Harbor Laboratory Press, NY, 2001). Briefly, after PAGE the samples were transferred onto the nitrocellulose membrane and the latter subjected to the standard ELISA procedure. The anti-GTFB mouse monoclonal antibody was previously characterized (Fukushima, K., Okada, T., Ochiai, K., Infection and Immunity 61:323-328 (1993), incorporated herein by reference). The secondary antibody (HRP-linked goat anti-mouse) and the detection reagents were purchased from Cell Signaling Technology (Beverly, Mass.).
(§2) Synthetic CSP was dissolved in water to the concentration of 1 mg/mL as described in Li, Y-H et al., J. of Bact., 183:897-908 (2001). […]
(§3) A Western blot analysis was performed to determine the effect of CSP on the level of GTFB expression. […] As a control, the same blot was analyzed with antibody specific to FTF, where it was observed that CSP has no effect on FTF expression (FIG. 7, panel 2).

gtfB gene of S. mutans = experiment: Transcriptional fusion assay (gtfB promoter-luciferase); type: cell-based
From the text: The fusion constructs and the transcription assay were previously described (Goodman, S. D. and Gao, Q., Plasmid 43:85-98 (2000)). Briefly, the constructs comprised the upstream regions of the gtfB and gtfC genes fused to the promoterless coding sequence of the firefly luciferase gene and inserted into the plasmid vector pVA838, a shuttle plasmid capable of propagating in both E. coli and S. mutans marked with erythromycin resistance. The plasmids were introduced into S. mutans GS5 by electroporation and the resulting erythromycin resistant strains were grown in liquid cultures and collected at various optical densities. The reporter gene (luciferase) expression was detected by measuring luminescence upon the addition of luciferin (the substrate for luciferase), see Goodman, S. D. and Gao Q. Plasmid 42:154-157 (1999), incorporated herein by reference.
as §2
The transcriptional fusion assay was performed to determine whether CSP inhibits the expression of the gtfB gene of S. mutans. […] When the expression peaked at the end of the lag phase prior to the exponential growth, the cells were challenged with increasing concentrations of CSP for an incubation period of 10 minutes and assessed for luminescence, the measure of reporter gene expression. […]

[2] = tested on: GTFB expression in the wild-type S. mutans; experiment: Western blot of GTFB expression after addition of CSP to cultures; type: cell-based; conditions: CSP added to fresh cultures at time of dilution, 1 to 8 mcg/mL; FIG. 7 panel 1
Experimental: as §1, §2, §3

With SGSLSTFFRLFNRSFTQALGK [CSP] the “bacterial cells localized to the attached layer” value (S. mutans) was “less than 8%”, the “inhibition of growth of S. mutans culture” value ([1]; CSP 400 μM, 10 minute pulse, FIG. 12) was 50% and the “effect on cell division and viability” value ([1]; CSP 1.6 mM, 10 minute pulse, FIG. 12) was “cell division stops and cells begin to die”. The “time of culture growth after which the inhibitory effect became undetectable” value ([1]; CSP added for 10 minutes, washed away, incubation in fresh medium) was 16 h, the “FTF expression (Western blot)” value (FTF expression) was “no effect” and the “inhibition of the gtf genes” value (gtfB gene of S. mutans; CSP 8 μg/ml (4 μM)) was “desired inhibition of the gtf genes”. For the same sequence, the “gtfB reporter gene expression (luminescence)” value (gtfB gene of S. mutans; increasing concentrations of CSP, 10 minutes incubation at peak expression, FIG. 8) was “increasing concentrations of CSP increased the magnitude of repression” and the “peak expression of GTFB (Western blot)” value [2] was “lowered proportionally to the amount of peptide added”.
